Data from patent publication US20240277847A1, “BENCH-STABLE TRIAZENE COMPOSITIONS FOR PROTEIN MODIFICATION” (ARIZONA BOARD OF REGENTS ON BEHALF OF THE UNIVERSITY OF …, priority 2021, published 2024).

Test: pH of triazene water solution before, during and after 370 nm irradiation
Assay type: physicochemical
Conditions: 0.5 mM triazene in water, 370 nm light; for pH change during irradiation: 1 minute
Experimental: Referring to FIG. 5, 0.5 mM of triazenes 1a, 1g, and 1i were incubated in a water solution and the relative pH was measured before, during, and after irradiation with 370 nm light. […] Furthermore, the data notes that after irradiation has ceased, there is an immediate drop in pH consistent with the reversion of the scaffold to the trans-species.

Structure (SMILES)	relative change in pH versus 1g	pH change during irradiation
COc1ccc(N=NN2CCCCC2)cc1 [1i]	over double that of 1g	–
COc1ccc(N=Nc2ccc(O)cc2O)cc1 [2i]	–	notable increases of pH
c1ccc(N=NN2CCCCC2)cc1 [1g]	–	notable increases of pH
O=[N+]([O-])c1ccc(N=NN2CCCCC2)cc1 [1a]	–	did not elicit notable pH change
